Measurements as given in US20090306149A1, “USE OF BIARYLCARBOXAMIES IN THE TREATMENT OF HEDGEHOG PATHWAY-RELATED DISORDERS” (priority 2006, published 2009).
Where two headings read alike, the source gives them in different places.

Legend:
[1] = test system: gli-luciferase activity (Hh pathway) in TMHh12 cells; test: "IC50 shift" gli-luciferase reporter assay in TMHh12 cells with a small molecule Smo agonist; type: cell-based, mouse; conditions: Mus musculus, TMHh12, TMHh12 cells
Procedure: (§1) TM3 cells (mouse) transfected with a new proprietary reporter construct (pTA-8xGli-Luc). The pTA-8xGli-Luc reporter produces approx. 4 fold more luciferase activity than classical 8xGli-LUC. A highly responsive stable clone has been selected (TMHh12) with >10-fold signal/noise ratio and <10% CV in 384 well format.
“IC50 shift” assays in TMHh12 cells. IC50 for antagonism of gli-luciferase activity was tested in the presence of increasing concentrations of a small molecule agonist which binds to Smo with 1 nM affinity and activates the Hh pathway.
Table 1 lists the IC50 of antagonists determined in the presence of different (1 nM and 25 nM) concentrations of a small agonist of Smoothened.

[2] = molecular target: Smoothened (Homo sapiens, UniProt Q99835); test: Smo binding assay, displacement of a small molecule agonist of Smoothened, filter binding format
From the text: A Smo binding assay was developed using radio-labeled smoothened agonist for compound competition.
Table 1, infra; lists the IC50 for displacement of a small molecule agonist of Smoothened determined in a filter binding format.

[3] = test system: Shh-mediated pathway activation (Gli-luciferase activity of TMHh12 cells); test: Gli-Luc reporter assay for Hh pathway inhibition in TMHh12 cells in the presence of Shh protein; type: cell-based; conditions: Mus musculus, read-out: EC50 to block Shh-mediated pathway activation
Procedure: as §1
Gli-Luc Reporter Assay for Hh Pathway Inhibition
Gli-luciferase activity of TMHh12 cells was determined in the presence of Shh protein.

[4] = 1 nM small molecule Smo agonist, read-out: Gli_luc (1 nM Smo agonist) IC50
[5] = 25 nM small molecule Smo agonist, read-out: Gli_luc (25 nM Smo agonist) IC50

Chain of Smoothened (Q99835 28-787): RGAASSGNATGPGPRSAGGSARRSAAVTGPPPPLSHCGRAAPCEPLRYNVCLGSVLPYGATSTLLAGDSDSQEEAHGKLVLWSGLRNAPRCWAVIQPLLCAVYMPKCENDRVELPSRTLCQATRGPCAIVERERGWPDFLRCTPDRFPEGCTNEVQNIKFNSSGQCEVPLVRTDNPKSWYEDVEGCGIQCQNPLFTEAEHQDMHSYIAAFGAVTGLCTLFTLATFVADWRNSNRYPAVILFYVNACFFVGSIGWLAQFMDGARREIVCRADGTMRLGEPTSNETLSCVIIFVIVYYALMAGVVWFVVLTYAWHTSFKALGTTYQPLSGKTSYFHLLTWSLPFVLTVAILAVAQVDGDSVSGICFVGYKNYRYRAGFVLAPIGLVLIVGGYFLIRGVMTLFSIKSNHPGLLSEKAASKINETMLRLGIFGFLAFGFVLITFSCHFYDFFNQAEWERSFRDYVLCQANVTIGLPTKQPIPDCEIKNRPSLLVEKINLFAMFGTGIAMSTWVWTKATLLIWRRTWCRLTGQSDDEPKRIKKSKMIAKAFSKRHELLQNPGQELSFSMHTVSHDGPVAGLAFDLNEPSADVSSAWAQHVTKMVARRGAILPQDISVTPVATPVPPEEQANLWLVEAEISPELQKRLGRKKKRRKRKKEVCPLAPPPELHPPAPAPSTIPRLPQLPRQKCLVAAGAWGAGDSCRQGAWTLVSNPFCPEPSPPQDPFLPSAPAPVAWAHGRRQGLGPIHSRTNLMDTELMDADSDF

Row | IC50 [1, 4] [nM] | IC50 [1, 5] [nM] | IC50 [2] [nM] | EC50 [3] [nM] | SMILES
1 | 7000 | 11200 | 13700 |  | COC(=O)N1CCC(CNC2Cc3ccc(NC(=O)c4cccc(C)c4-c4ccc(C(F)(F)F)cc4)cc3C2)CC1 (centres unmarked) [Example 51]
2 | 2490 | 12600 | 619 |  | Cc1cccc(C(=O)Nc2ccc3c(c2)CCC(NCc2ccccc2)CC3)c1-c1ccc(Cl)cc1 (centres unmarked) [Example 69]
3 | 13200 | 23600 | 3650 |  | O=C(Nc1ccc2c(c1)CC(NCc1ncc[nH]1)C2)c1cccc(C(F)(F)F)c1-c1ccc(C(F)(F)F)cc1 (centres unmarked) [Example 60]
4 | 142 | 4190 | 486 |  | Cc1cccc(C(=O)Nc2ccc3c(c2)CC(NCc2ccncc2)C3)c1-c1ccc(C(F)(F)F)cc1 (centres unmarked) [Example 67]
5 | 48 | 1310 | 135 |  | Cc1cccc(C(=O)Nc2ccc3c(c2)CC(NCc2ccc(-c4ccc(Cl)cc4)o2)C3)c1-c1ccc(C(F)(F)F)cc1 (centres unmarked) [Example 64]
6 | 651 | 10100 | 4300 |  | CCCNC1Cc2ccc(NC(=O)c3cccc(C)c3-c3ccc(C(F)(F)F)cc3)cc2C1 (centres unmarked) [Example 58]
7 | 141 | 1630 | 103 |  | Cc1cccc(C(=O)Nc2ccc3c(c2)CC(NCc2ccco2)C3)c1-c1ccc(C(F)(F)F)cc1 (centres unmarked) [Example 62]
8 | < 5 | 141 | 4 |  | Cc1ccc(CN[C@H]2Cc3ccc(NC(=O)c4cccc(C)c4-c4ccc(C(F)(F)F)cc4)cc3C2)o1 [Example 12]
9 | 261 | 1800 | 7910 |  | O=C(Nc1ccc2c(c1)CC(NCCc1ccccc1)C2)c1ccccc1-c1ccc(C(F)(F)F)cc1 (centres unmarked) [Example 53]
10 | 1670 | 4920 | 490 |  | Cc1cccc(C(=O)Nc2ccc3c(c2)C[C@@H](NCc2cnc4ccccc4c2)C3)c1-c1ccc(C(F)(F)F)cc1 [Example 29]
11 | 19 | 279 | 15 | 9.4 | Cc1cccc(C(=O)Nc2ccc3c(c2)C[C@@H](NCc2ccccn2)C3)c1-c1ccc(C(F)(F)F)cc1 [Example 6, 6-Methyl-4′-trifluoromethyl-biphenyl-2-carboxylic acid {(S)-2-[(pyridin-2-ylmethyl)-amino]-indan-5-yl}-amide]
12 | 165 | 4180 | 271 |  | O=C(Nc1ccc2c(c1)CC(NCc1ccccc1)C2)c1ccccc1-c1ccc(C(F)(F)F)cc1 (centres unmarked) [Example 56]
13 | 138 | 4860 | 367 |  | Cc1cccc(C(=O)Nc2ccc3c(c2)CCC(NCc2ccccn2)CC3)c1-c1ccc(C(F)(F)F)cc1 (centres unmarked) [Example 68]
14 | 94 | 964 | 151 |  | Cc1cccc(C(=O)Nc2ccc3c(c2)C[C@@H](NCc2ccncc2)C3)c1-c1ccc(C(F)(F)F)cc1 [Example 20]
15 | 35 | 458 | 8 |  | Cc1cccc(C(=O)Nc2ccc3c(c2)C[C@@H](NCc2ccc(Cl)s2)C3)c1-c1ccc(C(F)(F)F)cc1 [Example 26]
16 | 1010 | 1300 | 60 |  | CS(=O)(=O)NC1Cc2ccc(NC(=O)c3cccc(F)c3-c3ccc(C(F)(F)F)cc3)cc2C1 (centres unmarked) [Example 92]
17 | 3560 |  | 3520 |  | O=C(Nc1ccc2c(c1)CCC(NS(=O)(=O)c1ccccc1F)CC2)c1ccccc1-c1ccc(C(F)(F)F)cc1 (centres unmarked) [Example 104]
18 | 246 | 10000 | 593 |  | Cc1cccc(C(=O)Nc2ccc3c(c2)CC(NCc2cccnc2)C3)c1-c1ccc(C(F)(F)F)cc1 (centres unmarked) [Example 66]

Row | IC50 [1, 4] [nM] | IC50 [1, 5] [nM] | IC50 [2] [nM] | EC50 [3] [nM] | SMILES
19 | < 5 | 37 | 1 |  | Cc1cccc(C(=O)Nc2ccc3c(c2)C[C@@H](NCc2ccc(Cl)o2)C3)c1-c1ccc(C(F)(F)F)cc1 [Example 14]
20 | 226 | 2680 | 118 |  | COC(=O)NC(CNC1Cc2ccc(NC(=O)c3cccc(C)c3-c3ccc(C(F)(F)F)cc3)cc2C1)Cc1ccccc1 (centres unmarked) [Example 49]
21 | 82 | 616 | 3 |  | Cc1cccc(C(=O)Nc2ccc3c(c2)CC(NCc2cc4ccccc4o2)C3)c1-c1ccc(C(F)(F)F)cc1 (centres unmarked) [Example 41]
22 | < 5 | 141 | 14 |  | Cc1cccc(C(=O)Nc2ccc3c(c2)C[C@@H](NCc2cccs2)C3)c1-c1ccc(C(F)(F)F)cc1 [Example 7]
23 | 2100 | 11900 | 299 |  | Cc1cccc(C(=O)Nc2ccc3c(c2)CC(NCc2c[nH]c4ccccc24)C3)c1-c1ccc(C(F)(F)F)cc1 (centres unmarked) [Example 61]
24 | 99 | 2240 | 936 |  | Cc1ccc(C(=O)Nc2ccc3c(c2)C[C@H](NCc2ccccn2)C3)c(-c2ccccc2)c1 [Example 73]
25 | 261 | 2860 | 130 |  | COc1ccc(CN[C@H]2Cc3ccc(NC(=O)c4cccc(C)c4-c4ccc(C(F)(F)F)cc4)cc3C2)cn1 [Example 32]
26 | 456 | 3260 | 444 |  | CC(=O)Nc1ccc(CN[C@H]2Cc3ccc(NC(=O)c4cccc(C)c4-c4ccc(C(F)(F)F)cc4)cc3C2)cc1 [Example 22]
27 | 112 | 3490 | 21 |  | Cc1cccc(C(=O)Nc2ccc3c(c2)CC(NCc2cccn2C)C3)c1-c1ccc(C(F)(F)F)cc1 (centres unmarked) [Example 59]
28 | 686 | 14000 | 493 |  | Cc1cccc(C(=O)Nc2ccc3c(c2)CC(NCc2ccoc2)C3)c1-c1ccc(C(F)(F)F)cc1 (centres unmarked) [Example 63]
29 | 8680 | 6800 | 16700 |  | Cc1ccc(-c2ccc(C(F)(F)F)cc2)c(C(=O)Nc2ccc3c(c2)CC(NCc2ccccn2)C3)c1 (centres unmarked) [Example 54]
30 | 1900 |  | 217 |  | CCCCS(=O)(=O)NC1Cc2ccc(NC(=O)c3cccc(C)c3-c3ccc(C(F)(F)F)cc3)cc2C1 (centres unmarked) [Example 102]
31 | 281 | 3040 | 28 |  | Cc1cccc(C(=O)Nc2ccc3c(c2)C[C@@H](NCc2ccc4c(c2)CCO4)C3)c1-c1ccc(C(F)(F)F)cc1 [Example 31]
32 | 3060 | 17400 | 28 |  | Cc1cccc(C(=O)Nc2ccc3c(c2)CC(NCc2nc4ccccc4n2C)C3)c1-c1ccc(C(F)(F)F)cc1 (centres unmarked) [Example 57]
33 | 290 | 1340 | 137 |  | Cc1cccc(C(=O)Nc2ccc3c(c2)C[C@@H](NCc2scnc2C)C3)c1-c1ccc(C(F)(F)F)cc1 [Example 10]
34 | 145 | 1910 | 445 |  | Cc1cccc(C(=O)Nc2ccc3c(c2)CC(NCc2nccn2C)C3)c1-c1ccc(C(F)(F)F)cc1 (centres unmarked) [Example 40]
35 | 19 | 557 | 47 |  | Cc1cccc(C(=O)Nc2ccc3c(c2)C[C@@H](Nc2ccccc2)C3)c1-c1ccc(C(F)(F)F)cc1 [Example 74, 6-Methyl-4′-trifluoromethyl-biphenyl-2-carboxylic acid ((S)-2-phenylamino-indan-5-yl)-amide]
